According to PMC4699555 (Journal of pharmaceutical sciences, 2012):
Read-outs that look alike come from different tables or passages of the source.

Experiments:
[1] = cited from earlier work
[2] = cited from earlier work; remark: listed apart in the source
[3] = cited from earlier work; remark: listed apart in the source
[4] = human studies; cited from earlier work
[5] = cited from earlier work; remark: listed apart in the source
[6] = type: in vivo, Sprague-Dawley rats

| SMILES | Elimination half-life ([1]; animal studies) | Oral bioavailability ([1]; rats, oral 10 mg/kg) | Tmax ([1]; rats, oral 10 mg/kg) | Aqueous solubility [2] | Biopharmaceutics Classification System (BCS) class [3] | Elimination half-life [4] | Log partition coefficient [5] | Time up to which the metabolite could be detected in rat serum ([6]; after i.v. (10 mg/kg) and oral (50 mg/kg) vorinostat) | Detection of metabolite in urine ([6]; rats, after i.v. and oral vorinostat) |
| --- | --- | --- | --- | --- | --- | --- | --- | --- | --- |
| O=C(CCCCCCC(=O)Nc1ccccc1)NO [Vorinostat, suberoylanilide hydroxamic acid] | approximately 2 hours | 11% | 18 ± 6 min | 0.2 mg/mL | Class IV | approximately 2 hours | 1.9 | – | – |
| O=C(O)CCC(=O)Nc1ccccc1 [4-anilino-4-oxobutanoic acid] | – | – | – | – | – | – | – | up to 12 h | detected |
